Like-named read-outs stand apart in the source and are kept apart here. *1 amine or outer side, *2 acyl side, *3 side chain or, on linkers, in order; H or OH if unused. Where a SMILES comes first, the peptide text is derived from it. [ ]: non-standard residue; d: D form. GlyΨ(Thz) = O=C(c1csc(CN[*:1])n1)[*:2]; X3 = O=C(c1coc(CN[*:1])n1)[*:2]

The target of assay [1] is T1, E. coli Topoisomerase IV (Escherichia coli, UniProt P0AFI2+P20083). Put plainly: biochemical. Format: biochemical. Also noted: purchased John Innes Enterprises (Norwich, UK).
T1 sequence (P20083 whole entry): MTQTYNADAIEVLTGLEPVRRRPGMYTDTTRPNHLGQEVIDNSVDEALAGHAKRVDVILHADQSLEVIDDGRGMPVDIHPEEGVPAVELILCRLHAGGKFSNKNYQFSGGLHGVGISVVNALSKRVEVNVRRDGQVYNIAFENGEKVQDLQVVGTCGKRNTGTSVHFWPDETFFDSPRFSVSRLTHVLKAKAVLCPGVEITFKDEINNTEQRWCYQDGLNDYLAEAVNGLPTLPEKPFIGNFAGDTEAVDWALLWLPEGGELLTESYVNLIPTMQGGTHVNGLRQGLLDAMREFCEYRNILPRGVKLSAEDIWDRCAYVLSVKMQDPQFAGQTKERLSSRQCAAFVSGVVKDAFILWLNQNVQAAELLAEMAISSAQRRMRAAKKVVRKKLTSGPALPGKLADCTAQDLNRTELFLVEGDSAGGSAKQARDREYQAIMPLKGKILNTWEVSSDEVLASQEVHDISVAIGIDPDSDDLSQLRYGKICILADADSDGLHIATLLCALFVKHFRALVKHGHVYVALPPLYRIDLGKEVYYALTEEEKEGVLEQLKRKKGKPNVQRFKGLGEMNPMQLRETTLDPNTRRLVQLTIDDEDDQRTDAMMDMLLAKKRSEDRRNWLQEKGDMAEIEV
T1 sequence (P0AFI2 whole entry): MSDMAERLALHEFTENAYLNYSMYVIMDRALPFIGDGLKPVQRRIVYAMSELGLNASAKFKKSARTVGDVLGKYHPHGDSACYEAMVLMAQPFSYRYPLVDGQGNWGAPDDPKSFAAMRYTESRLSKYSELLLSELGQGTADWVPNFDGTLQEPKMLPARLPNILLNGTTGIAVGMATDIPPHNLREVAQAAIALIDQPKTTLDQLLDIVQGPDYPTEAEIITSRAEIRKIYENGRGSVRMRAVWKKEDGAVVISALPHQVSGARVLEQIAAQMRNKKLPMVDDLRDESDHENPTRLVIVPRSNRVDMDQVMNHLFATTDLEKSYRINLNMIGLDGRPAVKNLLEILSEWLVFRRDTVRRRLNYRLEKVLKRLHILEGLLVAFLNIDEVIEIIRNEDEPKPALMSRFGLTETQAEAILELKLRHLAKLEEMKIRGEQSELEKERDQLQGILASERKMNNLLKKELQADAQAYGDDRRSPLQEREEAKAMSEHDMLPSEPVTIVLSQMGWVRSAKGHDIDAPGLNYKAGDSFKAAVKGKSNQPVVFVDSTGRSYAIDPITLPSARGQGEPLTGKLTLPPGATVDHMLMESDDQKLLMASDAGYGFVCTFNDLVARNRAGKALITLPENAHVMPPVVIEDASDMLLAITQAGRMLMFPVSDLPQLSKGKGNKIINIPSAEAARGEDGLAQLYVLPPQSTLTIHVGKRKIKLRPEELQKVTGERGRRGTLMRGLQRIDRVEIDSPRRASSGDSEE
Description: (§5) Topoisomerase IV-mediated relaxation assays and decatenation assays were performed as previously described (see Peng and Marians, 1993). […] Decatenation assays contained topoisomerase IV (4 nM), 40 mM Tris HCl pH 7.5 at 30° C., 6 mM MgCl2, 10 mM DTT, 1 mM spermidine.HCl, 100 mM potassium glutamate, 0.5 mM ATP, 0.5 mg/mL BSA, 200 ng of kinetoplast DNA, and inhibitor where appropriate.
Assay [2] deals with T2, Human topoisomerase IIα (Homo sapiens, UniProt P11388). Put plainly: Human Topoisomerase IIα-mediated relaxation assay. It is filed as biochemical. Set-up: purchased TopoGEN Inc. (Port Orange, Fla., USA). The procedure:
(§1) Human Topoisomerase IIα-mediated relaxation assays and decatenation assays were performed as per the manufacturer's instructions in a total of 20 μL. Relaxation assays contained Topoisomerase IIα (4.3 nM), 50 mM Tris.HCl pH 8,120 mM KCl, 10 mM MgCl2, 0.5 mM DTT, 0.5 mM ATP, 4.6 nM of supercoiled pBR322 DNA, and inhibitor where appropriate. Decatenation assays substituted the supercoiled DNA with 200 ng catenated kinetoplast DNA.
(§2) All in vitro reactions were incubated at 37° C. for 30 minutes. The DMSO concentration in each reaction was kept constant at 3.33%. Reactions were quenched with the addition of an equal volume of phenol/chloroform/isoamyl alcohol (25:24:1) and one tenth volume of loading buffer containing 40% sucrose, 100 mM Tris.HCl pH 7.5, 100 mM EDTA, 2 mg/mL bromophenol blue. The proteins were precipitated by vortexing, followed by centrifugation for 5 minutes at 16 000 g. The aqueous phase was loaded onto 1% agarose gels in Tris-acetate and were electrophoresed at 60 V for three hours in Tris-acetate buffer. The gels were stained in 1 μg/mL ethidium bromide. The gels were visualised using UV light and were documented and analysed using Syngene software.

A further assay has as its target T3, Human topoisomerase I (Homo sapiens, UniProt P11387).
T3 construct: purchased TopoGEN Inc. (Port Orange, Fla., USA)
T3 sequence (P11387 1-765): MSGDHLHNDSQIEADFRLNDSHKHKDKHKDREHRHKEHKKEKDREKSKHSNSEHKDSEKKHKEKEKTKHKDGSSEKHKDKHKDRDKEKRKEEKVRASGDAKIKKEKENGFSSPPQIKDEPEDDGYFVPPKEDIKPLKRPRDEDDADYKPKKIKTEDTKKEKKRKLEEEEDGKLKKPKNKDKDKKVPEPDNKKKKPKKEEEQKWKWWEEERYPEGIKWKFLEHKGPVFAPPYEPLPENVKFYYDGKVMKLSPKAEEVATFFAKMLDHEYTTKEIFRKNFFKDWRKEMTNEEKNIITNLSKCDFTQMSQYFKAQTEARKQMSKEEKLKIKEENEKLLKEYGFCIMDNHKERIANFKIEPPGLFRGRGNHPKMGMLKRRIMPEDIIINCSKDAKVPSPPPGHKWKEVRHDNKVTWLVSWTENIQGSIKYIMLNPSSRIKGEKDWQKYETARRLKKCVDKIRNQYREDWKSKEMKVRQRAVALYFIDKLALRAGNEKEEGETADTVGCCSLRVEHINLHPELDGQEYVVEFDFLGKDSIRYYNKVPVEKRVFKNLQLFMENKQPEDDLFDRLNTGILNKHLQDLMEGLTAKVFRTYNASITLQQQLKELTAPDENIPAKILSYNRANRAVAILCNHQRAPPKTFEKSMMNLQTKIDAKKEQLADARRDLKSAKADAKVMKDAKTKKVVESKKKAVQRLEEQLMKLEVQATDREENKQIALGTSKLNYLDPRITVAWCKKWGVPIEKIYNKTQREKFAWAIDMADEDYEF
Description: Human topoisomerase I-mediated relaxation assay. It is filed as biochemical. On the procedure:
Human topoisomerase I-mediated relaxation assays were performed as per the manufacturer's instructions. Topoisomerase I (2 nM) was added to reactions containing 10 mM of Tris.HCl, pH 7.9, 150 mM NaCl, 100 μM spermidine.HCl, 5% glycerol, 0.1% BSA, 4.6 nM of […] pBR322 DNA, and inhibitor where appropriate.
as §2

Assay [3] has as its target T2, Human topoisomerase IIα. Put plainly: Human Topoisomerase IIα decatenation assay. It is filed as biochemical. Set-up: purchased TopoGEN Inc. (Port Orange, Fla., USA). On the procedure:
as §1, §2

Assay [4] deals with T4, DNA gyrase (Escherichia coli, UniProt P0AES4+P0AES6). Put plainly: biochemical. Set-up: species or system E. coli. To be noted: for IC50 SC gyrase: Table 5-C.
For assay [5], the system named is A. thaliana ecotype Columbia seeds. Description: Seed germination of A. thaliana. The conditions noted are these: 36 hours; 100 μM Peptide 1; 5 μM CFX. It is filed as in vivo, Arabidopsis thaliana.
Description: The microcin derivatives were tested for efficacy in planta against Arabidopsis thaliana ecotype Columbia according to known methods (see Wall et al., 2004).
Assay [6] has as its target DNA gyrase MG1655 wild type A2B2 (Escherichia coli, UniProt P0AES4+P0AES6). Description: biochemical. Also noted: species or system E. coli.
Description: ATP hydrolysis by DNA gyrase was linked to the oxidation of NADH using a pyruvate Kinase (PK)/lactate dehydrogenase (LDH) coupled enzyme assay and measured at 340 nm on a Spectramax Plus Microplate. […] Each 100 μL reaction contained 50 mM Tris.HCl (pH 7.5), 24 mM KCl, 5 mM MgCl2, 6.5% (w/w) glycerol, 4 mM dithiotreitol, 0.4 mM NADH, 0.8 mM phosphorenol-pyruvate, 1% (w/w) PK/LDH mixture (Sigma), 51 nM-153 nM gyrase enzyme and the drug tested at varying concentrations. DMSO was kept constant at 2%. The reactions were measured in the presence or absence of linear DNA pBR322 at fixed concentration of 8.4 nM. Reactions were initiated by the addition of 10 mM Mg.ATP and measured at 25° C. over 1.5 hours.
DNA-dependent ATPase reactions were tested with the wild type enzyme A2B2 and the W751R mutant enzyme. In these DNA-dependent ATPase assays, the concentration of wild type A2B2 is 51 nM, the concentration of W751R mutant enzyme is 106 nM.
Experimental data were fitted and treated with the following equation:
where L represents the inhibitor concentration, v represents the rate of the ATPase reaction, and v0 represents the rate in absence of inhibitor. The IC50 is deduced from the equation 2:
Assay [7] deals with DNA gyrase W751R mutant A2B2 (Escherichia coli, UniProt P0AES4+P0AES6, W751R). Format: biochemical, E. coli.
Description: ATP hydrolysis by DNA gyrase was linked to the oxidation of NADH using a pyruvate Kinase (PK)/lactate dehydrogenase (LDH) coupled enzyme assay and measured at 340 nm on a Spectramax Plus Microplate. […] DMSO was kept constant at 2%.
DNA-dependent ATPase reactions were tested with the wild type enzyme A2B2 and the W751R mutant enzyme.
In another assay the test system is HeLa cells. Put plainly: cells. The conditions noted are these: MTT, 24 hours; read-out: In vivo HeLa Cells (approximate IC50). Format: cell-based, human. On the procedure:
(§3) Human cell cultures were initiated from frozen cell stocks (the gift of Dr J. Gavrilovic, UEA). The HT-29 line is derived from a colorectal adenocarcinoma while HeLa cells are derived from a cervical epithelial adenocarcinoma (see FIG. 35). Both human cell lines form adherent cultures and were maintained at 37° C. in T25 culture vessels as 10 mL cultures in CO2 Independent Media containing 10% foetal bovine serum (EU approved), 4 mM L-glutamine, penicillin/streptomycin (Invitrogen). A subcultivation ratio of 1:3 and 1:6 were maintained for HT-29 and HeLa lines respectively. Media was renewed every three days.
(§4) The assay to determine the effects of the heterocyclic compounds on mammalian cells is based on the cleavage of the yellow tetrazolium salt MTT to purple formazoan crystals by metabolically active cells (Roche). After incubation with MTT and solubilization, the resulting coloured solution is quantified using a scanning spectrophotometer. Each of the cell lines was trypsinised and resuspended in fresh media prior to transfer to sterile flat-bottomed microtitre plates (200 μL per well) and allowed to recover for 16 hours. Five thousand HT-29 or 7500 HeLa cells per 100 μL culture medium were incubated in the presence of the drugs in various concentrations (totalling 10 μL) for 24 hours. Cell viability was then determined by addition of MTT reagent (20 μL) in each well, as per manufacturer's instructions and incubated for a further 4 hours. Solubilization solution (100 μL) was added per well and the plates incubated overnight at 37° C. The plates were read in a spectrophotometer (scanning from 500-650 nm, signal peak at 570 nm). A representative result is illustrated in FIG. 36.

A further assay has as its system HT-29 cells. Description: cells. It is filed as cell-based, human. The conditions noted are these: MTT, 24 hours; read-out: In vivo HT29 Cells (approximate IC50). The procedure:
as §3, §4

The target of assay [8] is T4, DNA gyrase. Format: biochemical, E. coli. The conditions noted are these: for IC50 cleavage: Table 5-C; for Cleavage (IC50 μM): Table 4.
Description: GyrA and GyrB were added to solutions containing 35 mM Tris.HCl (pH, 7.5), 24 mM KCl, 4 mM MgCl2, 1.8 mM spermidine, 6.5% glycerol, 0.36 mg/mL BSA, 9 μg/mL tRNA, 5 mM DTT, 2 mM ATP and 10 nM relaxed pBR322 DNA. […] The reactions were incubated at 25° C., and at each time point 30-μl aliquots were quenched with 1 μL of 10% SDS and 2 μL of 2 mg/ml proteinase K. Quenched aliquots were kept on ice until the experiment was completed, at which time they were incubated at 37° C. for half an hour. An equal volume of chloroform/isoamyl alcohol (24:1) and a half volume of loading buffer STEB (40% sucrose/100 mM Tris HCl, pH 7.5/1 mM EDTA/2 mg/ml bromophenol blue) were added, and the mixtures then were vortexed and centrifuged for 1 min at 13,000 rpm. The aqueous phase was loaded onto 1% agarose, TAE (40 mM Tris-acetate, 1 mM EDTA) gels that contained 1 μg/ml ethidium bromide and were run at either 30 V overnight in TAE containing 1 μg/ml ethidium bromide (in the cold room) or 70 V for 2.5 hours in TAE containing 1 μg/ml ethidium bromide.
For assay [9], the target named is T1, E. coli Topoisomerase IV. Put plainly: biochemical. Set-up: purchased John Innes Enterprises (Norwich, UK).
Description: as §5
The target in assay [10] is DNA gyrase (MG 1655 A2B2) (Escherichia coli, UniProt P0AES4+P0AES6). Description: biochemical. Set-up: species or system E. coli.
Description: GyrA and GyrB were added to a solution containing 35 mM Tris.HCl (pH, 7.5), 24 mM KCl, 4 mM MgCl2, 1.8 mM spermidine, 6.5% glycerol, 0.36 mg/mL BSA, 9 μg/mL tRNA, 5 mM DTT, 2 mM ATP and 24 nM relaxed pBR322 DNA. […] The reactions were incubated at 25° C., and at each time point 30-μl aliquots were quenched with 1 μL of 10% SDS. An equal volume of chloroform/isoamyl alcohol (24:1) and a half volume of loading buffer STEB (40% sucrose/100 mM Tris.HCl, pH 7.5/100 mM EDTA/2 mg/ml bromophenol blue) were added, and the mixtures then were vortexed and centrifuged for 1 min at 13,000 rpm. The aqueous phase was loaded onto 1% agarose, TAE (40 mM Tris-acetate, 1 mM EDTA) gels and were run at either 30 V overnight in TAE (in the cold room) or 70 V for 2.5 hours. The gels were stained for about 20 min in TAE containing 1 μg/ml ethidium bromide followed by destaining in multiple washes of TAE.
Another assay deals with DNA gyrase A2B2 (Escherichia coli, UniProt P0AES4+P0AES6). Put plainly: biochemical. Format: biochemical, E. coli.
For assay [11], the target named is Wheatgerm topoisomerase I (Triticum aestivum, UniProt A0A3B6RK19). Put plainly: Wheatgerm topoisomerase I-mediated relaxation assay. It is filed as biochemical. On the procedure:
Wheatgerm topoisomerase I-mediated relaxation assays were performed as per the manufacturer's instructions. Topoisomerase I (2 nM) was added to reactions containing 50 mM Tris. HCl pH 7.5, 50 mM NaCl, 0.1 mM EDTA, 1 mM DTT, 20% glycerol, 4.6 nM of […] pBR322 DNA, and inhibitor where appropriate.
as §2

Where [12] appears, read: Topo IIα Human, R (relaxation reaction) IC50.

T2 sequence (P11388 whole entry): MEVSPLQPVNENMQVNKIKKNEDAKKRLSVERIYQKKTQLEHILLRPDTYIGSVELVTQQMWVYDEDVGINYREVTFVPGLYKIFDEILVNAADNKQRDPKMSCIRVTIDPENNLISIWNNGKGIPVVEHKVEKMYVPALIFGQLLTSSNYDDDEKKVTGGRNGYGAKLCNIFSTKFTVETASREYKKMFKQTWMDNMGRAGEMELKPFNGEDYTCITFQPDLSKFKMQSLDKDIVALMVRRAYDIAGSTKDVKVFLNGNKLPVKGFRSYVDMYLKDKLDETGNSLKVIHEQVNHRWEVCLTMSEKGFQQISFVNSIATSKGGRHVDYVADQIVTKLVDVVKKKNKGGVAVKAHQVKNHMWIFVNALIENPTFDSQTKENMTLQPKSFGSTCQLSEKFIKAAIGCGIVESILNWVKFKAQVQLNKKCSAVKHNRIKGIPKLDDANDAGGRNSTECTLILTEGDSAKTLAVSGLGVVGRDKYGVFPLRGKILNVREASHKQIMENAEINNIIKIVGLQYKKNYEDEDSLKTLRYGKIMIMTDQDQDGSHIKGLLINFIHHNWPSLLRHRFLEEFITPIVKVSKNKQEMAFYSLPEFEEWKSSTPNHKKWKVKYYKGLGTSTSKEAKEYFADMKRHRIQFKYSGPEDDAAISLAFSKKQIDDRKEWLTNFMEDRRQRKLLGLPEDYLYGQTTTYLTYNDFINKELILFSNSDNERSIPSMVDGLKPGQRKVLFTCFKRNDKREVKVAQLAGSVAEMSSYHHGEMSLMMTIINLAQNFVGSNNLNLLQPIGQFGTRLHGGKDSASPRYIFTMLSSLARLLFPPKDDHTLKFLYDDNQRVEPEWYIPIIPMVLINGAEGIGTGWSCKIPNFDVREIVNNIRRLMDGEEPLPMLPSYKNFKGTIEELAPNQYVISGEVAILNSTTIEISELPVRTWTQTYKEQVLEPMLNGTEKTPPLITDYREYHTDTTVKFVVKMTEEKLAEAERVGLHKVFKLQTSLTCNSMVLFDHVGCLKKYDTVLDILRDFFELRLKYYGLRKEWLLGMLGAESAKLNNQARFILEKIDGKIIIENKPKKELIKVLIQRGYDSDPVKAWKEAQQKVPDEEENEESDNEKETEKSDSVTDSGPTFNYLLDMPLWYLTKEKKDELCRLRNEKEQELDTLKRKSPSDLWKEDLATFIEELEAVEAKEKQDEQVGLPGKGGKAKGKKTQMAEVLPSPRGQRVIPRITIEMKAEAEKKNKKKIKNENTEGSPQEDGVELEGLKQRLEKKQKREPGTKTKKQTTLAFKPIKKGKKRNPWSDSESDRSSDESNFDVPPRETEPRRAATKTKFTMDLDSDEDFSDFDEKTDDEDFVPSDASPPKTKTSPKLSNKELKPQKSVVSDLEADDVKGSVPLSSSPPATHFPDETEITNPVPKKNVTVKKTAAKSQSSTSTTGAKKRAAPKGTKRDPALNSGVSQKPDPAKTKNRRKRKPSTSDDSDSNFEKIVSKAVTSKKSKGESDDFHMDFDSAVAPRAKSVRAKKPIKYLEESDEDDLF
Chain of Wheatgerm topoisomerase I (A0A3B6RK19 entry or part of it): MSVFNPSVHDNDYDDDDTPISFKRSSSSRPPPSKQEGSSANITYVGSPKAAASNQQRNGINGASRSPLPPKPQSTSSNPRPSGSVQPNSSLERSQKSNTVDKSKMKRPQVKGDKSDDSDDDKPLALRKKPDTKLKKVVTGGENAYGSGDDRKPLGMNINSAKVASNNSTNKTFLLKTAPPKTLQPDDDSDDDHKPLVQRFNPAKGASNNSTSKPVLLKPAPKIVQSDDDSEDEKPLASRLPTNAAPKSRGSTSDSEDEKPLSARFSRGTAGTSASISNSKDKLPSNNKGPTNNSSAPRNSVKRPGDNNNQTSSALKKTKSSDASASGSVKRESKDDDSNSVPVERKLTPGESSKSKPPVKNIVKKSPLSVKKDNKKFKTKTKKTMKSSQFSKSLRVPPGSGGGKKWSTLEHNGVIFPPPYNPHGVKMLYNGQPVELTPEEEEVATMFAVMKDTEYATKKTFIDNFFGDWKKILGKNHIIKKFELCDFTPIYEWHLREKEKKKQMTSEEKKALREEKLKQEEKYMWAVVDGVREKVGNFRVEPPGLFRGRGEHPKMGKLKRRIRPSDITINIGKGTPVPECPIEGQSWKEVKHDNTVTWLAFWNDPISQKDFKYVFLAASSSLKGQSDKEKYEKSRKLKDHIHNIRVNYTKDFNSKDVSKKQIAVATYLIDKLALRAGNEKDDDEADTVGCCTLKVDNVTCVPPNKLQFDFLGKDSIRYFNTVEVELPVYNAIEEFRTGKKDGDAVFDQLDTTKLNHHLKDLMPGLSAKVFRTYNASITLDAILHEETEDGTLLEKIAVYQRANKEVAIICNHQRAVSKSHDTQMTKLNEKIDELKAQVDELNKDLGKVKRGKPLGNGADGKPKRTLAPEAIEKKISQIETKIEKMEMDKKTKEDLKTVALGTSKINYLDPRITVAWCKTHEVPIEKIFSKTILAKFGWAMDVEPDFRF
Description for DNA gyrase A2B2: Relaxation assays were performed in a manner analogous to that described by Pierrat et al., 2005. Briefly, relaxation assays were performed as for the supercoiling assay but with some modifications: ATP and spermidine were omitted. Gyr A and Gyr B were added to a solutions containing 35 mM of Tris.HCl (pH=7.5), 24 mM of KCl, 4 mM of MgCl2, 1.8 mg/mL of spermidine, 6.5% of glycerol, 0.36 mg/mL of BSA, 9 μg/mL of tRNA, 5 mM of DTT, 2 mM of ATP and 24 nM of relaxed pBR322 DNA. […] The amount of DMSO was kept constant at 3.33%. The reactions were incubated at 25° C., and at each time point 30 μL aliquots were quenched with the addition of an equal volume of chloroform/isoamyl alcohol (24:1) and a half volume of loading buffer STEB (40% sucrose/100 mM Tris HCl, pH 7.5/100 mM EDTA/2 mg/mL bromophenol blue). The mixtures then were vortexed and centrifuged for 1 minute at 13,000 rpm. The aqueous phase was loaded onto 1% agarose, TAE (40 mM Tris-acetate, 1 mM EDTA) gels and were run at either 30 V overnight in TAE (in the cold room) or 70 V for 2.5 hours in TAE. The gels were stained for about 20 minutes in TAE containing 1 μg/mL ethidium bromide followed by destaining in multiple washes of TAE. The data were analysed using Syngel software.
Description for pBR322 DNA: Other compounds like Ethidium Bromide (EtBr), MccB17 and Ciprofloxacin (CFX) were also tested as controls. In this assay, negatively supercoiled pBR322 was relaxed by topoisomerase I in the presence or the absence of the putative DNA intercalative compound. […] Sample reactions were performed in the same buffer used for the DNA relaxation of DNA gyrase (Pierrat & Maxwell, 2003). […] In one set of reactions, negatively supercoiled pBR322 DNA was relaxed at 37° C. for 30 minutes, then intercalative agent was added, i.e., the substrate of the assay was relaxed. In a second set of reactions, the intercalative agent was incubated with the DNA in reaction buffer at 37° C. for 15 minutes prior to the addition of topoisomerase I, i.e., the substrate of the assay was negatively supercoiled. […] Samples were incubated for 60 minutes at 37° C., followed by treatment with 1% SDS and 0.3 mg/mL proteinase K at 37° C. for 30 minutes. Reactions were terminated and samples were prepared for agarose gel electrophoresis as previously described (Heddle et al., 2001). Each reaction product was separated on 1% agarose gel, followed by staining in 1 μg/mL ethidium bromide.

In the case of `CC(C)(C)OC(=O)NCc1nc(C(=O)O)cs1` [#5], the “Topo IV, D (decatenation reaction) IC50” value at E. coli Topoisomerase IV [1] was “exquisitely sensitive”. Also, on Human topoisomerase IIα [2] (read-out: Topo IIα Human, R (relaxation reaction) IC50), the IC50 was below 20 µM. For the same compound, the “Topo I Human IC50” value on Human topoisomerase I is on record as “only inhibited human topoisomerase I”. For the same compound, the “Topo IIα Human, D (decatenation reaction) IC50” value at Human topoisomerase IIα [3] is recorded as “exquisitely sensitive”.

As to `CC(C)(C)OC(=O)NCc1nc(-c2nc(C(=O)O)cs2)co1` [#7], the “IC50 SC gyrase” value against DNA gyrase [4] is listed as “Inactive”.

As to `CC(C)(C)OC(=O)NCc1nc(-c2nc(C(=O)O)co2)cs1` [#8], at DNA gyrase [4], the “IC50 SC gyrase” value was “Inactive”.

On to `O=C(O)c1cn(C2CC2)c2cc(N3CCNCC3)c(F)cc2c1=O` [Ciprofloxacin, reference compound], for which the “germination of A. thaliana ecotype Columbia seeds” value in assay [5] is listed as “growth is inhibited immediately after germination”. Further, in assay [6] (FIG. 18, 0.5 and 1.0 μM), the “inhibition of DNA-dependent ATPase of wild type enzyme” value was “slow down”. Further, in [6] (FIG. 18, no DNA), the “inhibition of DNA-independent ATPase of wild type enzyme” value is on record as “does not inhibit”. The “concentration producing a weak intercalative property” value in the assay with pBR322 DNA was 50 µM. Further, the “inhibition of DNA-independent ATPase of W751R mutant enzyme” value in assay [7] (FIG. 18, no DNA) was “does not inhibit”. Also, the “inhibition of DNA-dependent ATPase of W751R mutant A2B2” value in assay [7] (W751R enzyme 106 nM, + DNA) is “slow down”.

Consider `C[C@H](NC(=O)CNC(=O)CNC(=O)c1coc(CNC(=O)[C@H](C)NC(=O)CNC(=O)[C@@H](N)CCC(N)=O)n1)C(=O)O` [Peptide 4] (H-QGA[X3]GGA-OH), for which the IC50 in the assay with HeLa cells is above 75 µM; in the assay on HT-29 cells it was above 75 µM; on E. coli Topoisomerase IV [1], 175 µM; against Human topoisomerase IIα [2] (setting [12]) it was 225 µM; at DNA gyrase [4], 400 µM; against Human topoisomerase I, above 300 µM. Moreover, the values for the IC50 against Human topoisomerase IIα [3] and at E. coli Topoisomerase IV [9] were below 50 µM and above 300 µM, respectively. For the same compound, the IC50 cleavage result against DNA gyrase [8] is “No”.

As for `CC(NC(=O)CNC(=O)CNC(=O)c1coc(CNC(=O)C(C)NC(=O)CNC(=O)C(N)CCC(N)=O)n1)C(=O)O` (stereo not drawn) [Peptide 4] (H-QGA[X3]GGA-OH; configuration not given here), in assay [10] (Table 4), the “Supercoiling (IC50 μM) MG 1655 A2B2” value is “Slow”. Further, half-maximal inhibition at Human topoisomerase IIα [2] (setting [12]) (IC50) required 225 µM. On DNA gyrase [8], the “Cleavage (IC50 μM)” value was “inactive”.

Regarding `CC(C)(C)OC(=O)NCc1nc(C(=O)O)cs1` [Peptide 5], the half-inhibitory concentration (IC50) is around 75 µM with HeLa cells; around 15 µM in the assay with HT-29 cells; 20 µM at E. coli Topoisomerase IV [1]; 15 µM against Human topoisomerase IIα [2] (setting [12]); 75 µM against DNA gyrase [4]; 40 µM on Human topoisomerase I. The half-inhibitory concentration (IC50) against Human topoisomerase IIα [3] was below 5 µM; at E. coli Topoisomerase IV [9] it was above 75 µM.

For the compound `C[C@H](NC(=O)CNC(=O)CNC(=O)c1csc(CNC(=O)[C@H](C)NC(=O)CNC(=O)[C@@H](N)CCC(N)=O)n1)C(=O)O` [Peptide 5] (H-QGA[GlyΨ(Thz)]GGA-OH), the 50% inhibitory concentration (IC50) was 40 µM against DNA gyrase A2B2; around 75 µM in the assay on HeLa cells; around 15 µM in the assay with HT-29 cells; 7 µM against Human topoisomerase IIα [2] (setting [12]); 25 µM against DNA gyrase [4]; 25 µM at Human topoisomerase I. On Human topoisomerase IIα [3], this compound registered a 50% inhibitory concentration (IC50) below 2.5 µM. Further, the IC50 cleavage entry at DNA gyrase [8] is reported as “No”.

With `CC(NC(=O)CNC(=O)CNC(=O)c1csc(CNC(=O)C(C)NC(=O)CNC(=O)C(N)CCC(N)=O)n1)C(=O)O` (stereo not drawn) [Peptide 5] (H-QGA[GlyΨ(Thz)]GGA-OH; configuration not given here), the IC50 was 15 µM in assay [6]; 15 µM at DNA gyrase A2B2; 15 µM in [10] (Supercoiling (IC50 μM) MG 1655 A2B2, Table 4); below 20 µM at Human topoisomerase IIα [2] (setting [12]); below 10 µM at E. coli Topoisomerase IV [9]. Besides, the “ATPase % inhibition at saturation” value in [6] (Table 4) is recorded as 40%. In addition, on E. coli Topoisomerase IV [1], the “Topo IV, D (decatenation reaction) IC50” value is “exquisitely sensitive”. The “Cleavage (IC50 μM)” value on DNA gyrase [8] was “inactive”. Besides, the “Topo I Wheatgerm IC50” value in [11] is reported as “inhibited”. For the same compound, the “Topo I Human IC50” value at Human topoisomerase I is on record as “inhibited”. Moreover, the “Topo IIα Human, D (decatenation reaction) IC50” value at Human topoisomerase IIα [3] is listed as “exquisitely sensitive”.

For orientation: IC50 means the concentration that inhibits the measured activity by half.

Values taken from US20080234132A1, “Microcin B17 Analogs And Methods For Their Preparation And Use” (priority 2004, published 2008).
